Measured values reported in ChEMBL document CHEMBL1143963, “2D QSAR and similarity studies on cruzain inhibitors aimed at improving selectivity over cathepsin L” (Bioorg Med Chem, 2008).

target: Cruzipain (Trypanosoma cruzi, UniProt P25779); assay: Inhibition of Trypanosoma cruzi cruzain
Sequence (P25779 whole entry): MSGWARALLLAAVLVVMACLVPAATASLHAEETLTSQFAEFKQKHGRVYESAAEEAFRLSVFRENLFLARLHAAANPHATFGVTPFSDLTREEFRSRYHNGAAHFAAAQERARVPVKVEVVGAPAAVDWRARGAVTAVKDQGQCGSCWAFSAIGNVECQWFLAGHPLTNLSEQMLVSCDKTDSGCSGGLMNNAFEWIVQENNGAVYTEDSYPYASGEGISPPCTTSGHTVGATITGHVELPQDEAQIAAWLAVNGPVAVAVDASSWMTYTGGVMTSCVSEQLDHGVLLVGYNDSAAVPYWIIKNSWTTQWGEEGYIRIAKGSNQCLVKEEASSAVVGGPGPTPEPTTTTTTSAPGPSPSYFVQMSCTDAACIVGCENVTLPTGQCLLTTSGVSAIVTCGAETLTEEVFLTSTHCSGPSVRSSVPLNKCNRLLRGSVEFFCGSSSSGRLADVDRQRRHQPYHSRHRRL

Compound | Ki [µM]
O=C(O)C[C@H](CCc1ccccc1)NC(=O)[C@H](Cc1ccccc1)NC(=O)OCc1ccccc1 | > 10
O=C(N[C@@H](Cc1ccccc1)C(=O)N[C@H](CCO)CCc1ccccc1)OCc1ccccc1 | > 10
O=C(N[C@@H](Cc1ccccc1)C(=O)N[C@H](CCS)CCc1ccccc1)OCc1ccccc1 | > 5.01

The next compounds have a lower Ki than those just listed; values first:

Ki [µM] | Compound
0.145 | O=C(N[C@@H](Cc1ccccc1)C(=O)N[C@@H](Cc1ccccc1)C(=O)CO)OCc1ccccc1
0.00437 | O=C(N[C@@H](Cc1ccccc1)C(=O)N[C@@H](Cc1ccccc1)C(=O)CS)OCc1ccccc1
